Data published in ChEMBL document CHEMBL3603776, “2-Phenoxy-1,4-naphthoquinones: From a Multitarget Antitrypanosomal to a Potential Antitumor Profile” (J Med Chem, 2015).
Each block holds one molecule with its values, some of them ahead of it. Active and inactive are the calls of the source. The rule behind the calls is not given here.

What was measured:
Trypanosoma brucei = assay: Inhibition of recombinant Trypanosoma brucei GAPDH assessed as oxidative phosphorylation of D-glyceraldehyde-3-phosphate to 1,3-bisphosphoglycerate at 5 uM by spectrophotometric method relative to 2-phenoxy-1,4-naphthoquinone
IGROV-1 [1] = assay: Cytotoxicity against human IGROV1 cells after 24 hrs by MTT assay; format: functional, cell-based; conditions: IGROV-1, 24 h
L6 = assay: Cytotoxicity against rat L6 cells after 72 hrs by alamar blue assay; format: cell-based; conditions: L6, 72 h
[2] = Cytotoxicity against HDF after 24 hrs by MTT assay; conditions: Homo sapiens
Leishmania donovani = assay: Antitrypanosomal activity against amastigotes of Leishmania donovani MHOM/ET/67/L82 after 72 hrs by inverted microscope analysis; format: functional, organism-based; conditions: MHOM/ET/67/L82, 72 h
Bos taurus [3] = organism: Bos taurus; assay: Inhibition of electron transport protein complex 2 in bovine hear mitochondria assessed as reduction of succinate-induced oxygen consumption at 5 uM
Bos taurus [4] = organism: Bos taurus; assay: Inhibition of electron transport protein complex 1 in bovine hear mitochondria assessed as enzyme activity per min/mg of protein using […] as substrate at 10 uM
[5] = target: Glyceraldehyde-3-phosphate dehydrogenase (Homo sapiens, UniProt P04406); assay: Inhibition of recombinant human GAPDH assessed as oxidative phosphorylation of D-glyceraldehyde-3-phosphate to 1,3-bisphosphoglycerate by spectrophotometric method
HT-29 [6] = assay: Selectivity index, ratio of IC50 for HDF to IC50 for human HT-29 cells
[7] = test system: Trypanosoma brucei rhodesiense; assay: Antitrypanosomal activity against bloodstream forms of Trypanosoma brucei rhodesiense STIB 900 after 72 hrs by alamar blue assay; format: functional, organism-based; conditions: STIB 900, 72 h
Bos taurus [8] = organism: Bos taurus; assay: Inhibition of electron transport protein complex 1 in bovine hear mitochondria assessed as reduction of NADH-induced ROS production at 10 uM by fluorescence plate reader analysis
IGROV-1 [9] = assay: Selectivity index, ratio of IC50 for HDF to IC50 for human IGROV1 cells
[10] = Inhibition of recombinant Trypanosoma brucei GAPDH assessed as oxidative phosphorylation of D-glyceraldehyde-3-phosphate to 1,3-bisphosphoglycerate by spectrophotometric method
Bos taurus [11] = organism: Bos taurus; assay: Inhibition of electron transport protein complex 1 in bovine hear mitochondria assessed as reduction of NADH-induced oxygen consumption at 5 uM
HT-29 [12] = assay: Cytotoxicity against human HT-29 cells after 24 hrs by MTT assay; format: functional, cell-based; conditions: HT-29, 24 h
[13] = Selectivity index, ratio of IC50 for rat L6 cells to IC50 for bloodstream forms of Trypanosoma brucei rhodesiense STIB 900; format: toxicity, cell-based; conditions: read-out: Ratio IC50
[14] = Selectivity index, ratio of IC50 for rat L6 cells to IC50 for amastigotes of Leishmania donovani MHOM/ET/67/L82; format: toxicity, cell-based; conditions: read-out: Ratio IC50
Bos taurus [15] = organism: Bos taurus; assay: Inhibition of electron transport protein complex 1 in bovine hear mitochondria assessed as reduction of NADH-induced oxygen consumption up to 10 uM

Glyceraldehyde-3-phosphate dehydrogenase, sequence (P04406 whole entry): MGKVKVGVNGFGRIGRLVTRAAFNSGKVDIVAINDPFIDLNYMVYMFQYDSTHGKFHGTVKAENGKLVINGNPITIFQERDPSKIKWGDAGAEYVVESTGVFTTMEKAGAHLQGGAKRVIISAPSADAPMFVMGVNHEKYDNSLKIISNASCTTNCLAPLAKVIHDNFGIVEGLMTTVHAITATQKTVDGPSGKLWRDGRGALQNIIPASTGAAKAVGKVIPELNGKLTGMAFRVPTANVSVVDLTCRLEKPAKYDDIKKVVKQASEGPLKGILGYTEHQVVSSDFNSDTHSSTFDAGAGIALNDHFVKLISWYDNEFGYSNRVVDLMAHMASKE

- inhibition (Trypanosoma brucei): 92%
- inhibition (Bos taurus [3]): inactive
- IC50 [5]: 1.41 µM
- IC50 [7]: 0.38 µM
SMILES: COc1ccc(OC2=CC(=O)c3cc4ccccc4cc3C2=O)cc1
- IC50 (IGROV-1 [1]): 2.31 µM
- IC50 (L6): 0.24 µM
- IC50 [2]: 17.1 µM
- IC50 (Leishmania donovani): 2.55 µM
- Activity (Bos taurus [4]): 0.029 µmol/min/mg
- Ratio IC50 (HT-29 [6]): 4.46
- inhibition (Bos taurus [8]): Active
- Ratio IC50 (IGROV-1 [9]): 7.4
- IC50 [10]: 15.6 µM
- inhibition (Bos taurus [11]): 40%
- IC50 (HT-29 [12]): 3.83 µM
- selectivity ratio [13]: 0.63
- selectivity ratio [14]: 0.09

- IC50 [5]: 0.59 µM
SMILES: O=C1C=C(Oc2ccccc2)C(=O)c2ccccc21
- IC50 (IGROV-1 [1]): 3.43 µM
- IC50 [2]: 9.84 µM
- Activity (Bos taurus [4]): 0.052 µmol/min/mg
- Ratio IC50 (HT-29 [6]): 2.24
- inhibition (Bos taurus [8]): Active
- Ratio IC50 (IGROV-1 [9]): 2.87
- IC50 [10]: 5.73 µM
- inhibition (Bos taurus [15]): inactive
- IC50 (HT-29 [12]): 4.4 µM
